{"source": "patent US10138211B2", "about": "“Crystalline forms of olaparib and manufacturing processes therefor” (ScinoPharm Taiwan, Ltd., priority 2016, dated 2018)", "key": {"[1]": {"assay": "Solubility of olaparib at room temperature in solvents", "type": "physicochemical", "settings": "for solubility: organic solvent or mixture", "experimental": "(§1) As used herein, the term “solvent” refers to a liquid substance capable of dissolving olaparib at a concentration of at least about 2.5% (w/w) at 60° C. The term “anti-solvent” refers to a liquid substance which is not capable of dissolving olaparib at a concentration of […] about 2.5% (w/w) at 60° C."}, "[2]": {"assay": "Solubility of olaparib at 60° C. in solvents", "type": "physicochemical", "experimental": "as §1"}}}
{"smiles": "O=C(c1cc(Cc2n[nH]c(=O)c3ccccc23)ccc1F)N1CCN(C(=O)C2CC2)CC1", "note": "[olaparib, 4-[(3-[(4-cyclopropylcarbonyl)piperazin-4-yl]carbonyl)-4-fluorophenyl]methyl(2H)phthalazin-1-one]", "values": [{"measurement": "Solubility of olaparib at room temperature", "setting": "[1]; AcOH", "value": ">20.0", "unit": "wt %"}, {"measurement": "Solubility of olaparib at room temperature", "setting": "[1]; DMSO", "value": ">19.1", "unit": "wt %"}, {"measurement": "solubility", "setting": "[1]; acetic acid (AcOH), AcOH", "value": "> 210", "unit": "mg/mL"}, {"measurement": "solubility", "setting": "[1]; DMSO", "value": "> 210", "unit": "mg/mL"}, {"measurement": "Solubility of olaparib at 60° C.", "setting": "[2]; ACN", "value": "<2.1", "unit": "wt %"}, {"measurement": "Solubility of olaparib at 60° C.", "setting": "[2]; Cyclohexane", "value": "<2.1", "unit": "wt %"}, {"measurement": "Solubility of olaparib at 60° C.", "setting": "[2]; DMAc", "value": ">23.5", "unit": "wt %"}, {"measurement": "Solubility of olaparib at 60° C.", "setting": "[2]; EA", "value": "<1.8", "unit": "wt %"}, {"measurement": "Solubility of olaparib at 60° C.", "setting": "[2]; EtOH", "value": "2.6-2.9 wt %"}, {"measurement": "Solubility of olaparib at 60° C.", "setting": "[2]; IPA", "value": "<2.1", "unit": "wt %"}, {"measurement": "Solubility of olaparib at 60° C.", "setting": "[2]; MeOH", "value": "6.7-8.8 wt %"}, {"measurement": "Solubility of olaparib at 60° C.", "setting": "[2]; Pyridine", "value": ">21.5", "unit": "wt %"}, {"measurement": "Solubility of olaparib at 60° C.", "setting": "[2]; THF", "value": "<1.9", "unit": "wt %"}, {"measurement": "Solubility of olaparib at 60° C.", "setting": "[2]; Toluene", "value": "<1.9", "unit": "wt %"}, {"measurement": "Solubility of olaparib at 60° C.", "setting": "[2]; Xylenes", "value": "<1.9", "unit": "wt %"}, {"measurement": "solubility", "setting": "[2]; acetonitrile (ACN), organic solvent or mixture, ACN", "value": "< 16.2", "unit": "mg/mL"}, {"measurement": "solubility", "setting": "[2]; ethanol (EtOH), organic solvent or mixture, EtOH", "value": "21 to 23", "unit": "mg/mL"}, {"measurement": "solubility", "setting": "[2]; isopropanol (IPA), organic solvent or mixture, IPA", "value": "< 16.2", "unit": "mg/mL"}, {"measurement": "solubility", "setting": "[2]; methanol (MeOH), organic solvent or mixture, MeOH", "value": "53 to 70", "unit": "mg/mL"}, {"measurement": "Solubility of olaparib at 60° C.", "setting": "[2]; n-butanol", "value": "<2.1", "unit": "wt %"}, {"measurement": "Solubility of olaparib at 60° C.", "setting": "[2]; n-heptane", "value": "<2.4", "unit": "wt %"}, {"measurement": "solubility", "setting": "[2]; organic solvent or mixture, Cyclohexane", "value": "< 16.2", "unit": "mg/mL"}, {"measurement": "solubility", "setting": "[2]; organic solvent or mixture, DMAc", "value": "> 220", "unit": "mg/mL"}, {"measurement": "solubility", "setting": "[2]; organic solvent or mixture, EA", "value": "< 16.2", "unit": "mg/mL"}, {"measurement": "solubility", "setting": "[2]; organic solvent or mixture, Pyridine", "value": "> 210", "unit": "mg/mL"}, {"measurement": "solubility", "setting": "[2]; organic solvent or mixture, THF", "value": "< 16.9", "unit": "mg/mL"}, {"measurement": "solubility", "setting": "[2]; organic solvent or mixture, Toluene", "value": "< 16.9", "unit": "mg/mL"}, {"measurement": "solubility", "setting": "[2]; organic solvent or mixture, Xylenes", "value": "< 16.2", "unit": "mg/mL"}, {"measurement": "solubility", "setting": "[2]; organic solvent or mixture, n-butanol", "value": "< 16.9", "unit": "mg/mL"}, {"measurement": "solubility", "setting": "[2]; organic solvent or mixture, n-heptane", "value": "< 16.2", "unit": "mg/mL"}, {"measurement": "Solubility of olaparib at 60° C.", "setting": "[2]; water", "value": "<1.6", "unit": "wt %"}, {"measurement": "solubility", "setting": "[2]; water", "value": "< 16.2", "unit": "mg/mL"}]}
